Experimental data published in US20110104121A1, “Female Reproductive Tract and Anal Prophylaxes” (priority 2008, published 2011).

Assays:
uterine epithelial cells = test: Trappin-2/Elafin production by uterine epithelial cells on Poly(I:C) stimulation; assay type: cell-based, human; conditions: 24 hour conditioned media, ELISA
Method: (§1) Materials & Methods. A total of 11 different patients were used to obtain epithelial cells from the uterus, Fallopian tube, endocervix and ectocervix. Epithelial cells were isolated according to known methods (Fahey, et al. (1999) Am. J. Reprod. Immunol. 42(1):49-57; Fahey et al. (1998) Immunol. Invest. 27(3):167-80). Briefly, tissues were rinsed with 1×PBS and minced into 1-2 mm fragments prior to subjecting them to enzymatic digestion for 2 hours at 37° C. The enzyme mixture contained 3.4 mg/ml pancreatin (Invitrogen Life Technologies, Carlsbad, Calif.), 0.1 mg/ml hyaluronidase (Worthington Biochemical, Lakewood, N.J.), 1.6 mg/ml collagenase (Worthington Biochemical), and 2 mg/ml D-glucose, in 1×HBSS (Invitrogen Life Technologies). […] Epithelial cell sheets retained on the filter were recovered by rinsing and backwashing, centrifuged at 500×g for 10 minutes and analyzed for cell number and viability. […]
(§2) Concentrations of Trappin-2/Elafin in the apical and basolateral supernatants from primary FRT epithelial cells and CVL from HIV(+) and (−) women were determined with an ELISA Duoset kit (R&D Systems, Minneapolis, Minn., USA) according to the manufacturer's protocol. […] Amounts of Trappin-2/Elafin were measured based on a standard curve after OD measurements at 450 nm on an ELISA reader (Dynex, Chantilly, Va., USA). […]

[1] = test system: Fallopian tube, endocervix, and ectocervix epithelial cells; test: Trappin-2/Elafin production by Fallopian tube, endocervix and ectocervix epithelial cells on Poly(I:C) stimulation; assay type: cell-based, human; conditions: 4-6 patients per compartment
Method: as §1, §2

[2] = test system: uterine epithelial cells (UTEC); test: CCL20/MIP3α production by uterine (endometrium) epithelial cells on TLR agonist treatment; assay type: cell-based, human
Source text: (§3) Materials and Methods. Source of Tissues Human uterine and Fallopian tube tissues were obtained from women undergoing hysterectomy. Tissues used in this study were collected from patients with benign conditions such as fibroids distal from the site of pathology. The sections were examined by a pathologist and proclaimed to be free of pathological lesions. A total of nine different patients were used to obtain uterine epithelial cells and a total of seven patients were used to obtain Fallopian tube epithelial cells.
(§4) Epithelial cells were isolated according to known methods (Fahey, et al. (1999) supra; Fahey, et al. (1998) supra) as described herein.
(§5) To establish a cell culture system of polarized human uterine epithelial cells (UTEC) and Fallopian tube epithelial cells (FTEC) with both apical and basolateral compartments, primary human UTEC and FTEC were cultured in Human Extracellular Matrix (Becton Dickenson, Franklin Lakes, N.J., USA)-coated Falcon cell culture inserts in 24-well culture plates (Fisher Scientific, Pittsburgh, Pa., USA). For these experiments, apical and basolateral compartments contained 300 and 850 μL of complete medium, respectively. The medium was changed every 2 days. […]
(§6) Concentrations of CCL20/MIP3α in the apical and basolateral supernatants from human primary UTEC and FTEC were determined with an ELISA Duoset kit (R&D Systems, Minneapolis, Minn., USA) according to the manufacturer's protocol. Amounts of CCL20/MIP3α were quantified based on a standard curve after OD measurements at 450 nm on an ELISA reader (Dynex, Chantilly, Va., USA).
(§7) Real-time RT-PCR was carried with a two-step protocol as described herein. […] As indicated herein, the software calculates the threshold cycle (Ct) for each reaction which was used to quantify the amount of starting template in the reaction.

[3] = test system: Fallopian tube epithelial cells (FTEC); test: CCL20/MIP3α production by Fallopian tube epithelial cells on Poly(I:C) treatment; assay type: cell-based, human
Source text: as §3, §4, §5, §6, §7

HIV-1 X4/T-tropic IIIB = test: TZM-bl infectivity assay, HIV-1 IIIB; assay type: cell-based; conditions: for post-infection inhibition, IIIB: 1 ng/ml
Method: (§8) The TZM indicator cell line is a HeLa cell derivative that expresses high levels of CD4, CCR5 and CXCR4 (Wei, et al. (2002) Antimicrob. Agents Chemother. 46(6):1896-905). The cells contain HIV long terminal repeat (LTR)-driven β-galactosidase and luciferase reporter cassettes that are activated by HIV tat expression.
(§9) TZM cells were seeded at 2×10^4 cells per well in a 96-well microtiter plate and allowed to adhere overnight at 37° C. Varying doses of recombinant human Trappin-2/Elafin (Peprotech, Rocky Hill, N.J.) were incubated with HIV-1 IIIB and BaL at multiplicity of infection (MOI) 1 for 1 hour at 37° C. in a final volume of 100 μl. Following incubation, the media was aspirated from TZM cells and the virus plus Trappin-2/Elafin was added to the cells along with 100 μl of TZM media. Luciferase activity was measured after 48 hours at 37° C. with 5% CO2 in a humidified incubator. Briefly, the supernatants were aspirated, and the cells were lysed with a BETA GLO luciferase assay substrate. Light intensity of each well was measured using a luminometer. Uninfected cells were used to determine background luminescence. All infectivity assays were performed in quadruplicate.
(§10) Other experiments were conducted in order to determine whether the inhibitory effects of Trappin-2/Elafin were at the cell surface level such as the blocking of a co-receptor. For these experiments, varying doses of Trappin-2/Elafin were directly added to TZM cells and incubated for 1 hour at 37° C. prior to washing with 1×PBS and addition of IIIB or BaL viruses. In additional experiments to determine possible post-infection mechanisms of inhibition by Trappin-2/Elafin, TZM cells were infected with HIV-1 IIIB and BaL at MOI 1 and were washed at 6 hours and 24 hours post-infection followed by the addition of 10 ng/ml rTrappin-2/Elafin. Assays were developed at 48 hours by addition of the BETA-GLO substrate and measuring relative light units using a luminometer.
(§11) Since HIV-1 is an important sexually transmitted pathogen, the activity of recombinant Trappin-2/Elaf in (rTrappin-2/Elafin) was evaluated against HIV-1 X4/T-tropic IIIB and R5/M-tropic BaL. HIV-1 IIIB and BaL were incubated with rTrappin-2/Elafin at 0.01, 0.1, 1, and 10 ng/ml for 1 hour at 37° C. TZM-bl indicator cells were plated the previous day at 25,000 cells per well and grown to 70-80% confluence. The virus-Trappin-2/Elafin mixture was added to the TZM cells and incubated for 48 hours at 37° C. At the end of the incubation period, BETA-GLO substrate was added to the cells and viral infection was quantified using a luminometer, expressed as relative light units (RLU). The data was expressed as percent of control with virus-only control set at 100%. […] Therefore, the concentrations of Trappin-2/Elafin showing anti-HIV-1 activity were in the range of physiological levels of this molecule that were secreted by the FRT epithelial cells. Since the inhibitory activity was observed as a result of pre-incubation of HIV-1 and rTrappin-2/Elafin, it is contemplated that the effect of Trappin-2/Elafin on viral infection was direct. […]
(§12) Laboratory-adapted viral strains HIV-1 IIIB (×4) and BaL (R5) were obtained and virus stocks were propagated in PHA-stimulated human PBMC and stored frozen at −80° C. Virus stocks produced in PBMC of molecularly cloned HIV-1 NL4.3 (×4; lab-adapted) and YU-2.c (R5; directly cloned without culture) were obtained. Virus titers were determined on TZM-bl cells as described herein. Also used was a PBMC-derived virus stock of pCH077.c, a recently generated Clade B infectious molecular clone matching the nucleotide sequence determined to be the transmitted/founder virus sequence of CHAVI subject 700010077. […]

HIV-1 R5/M-tropic BaL = test: TZM-bl infectivity assay, HIV-1 BaL; assay type: cell-based
Method: as §8, §9, §10, §11, §12

TZM cells = assay type: cell-based, human
Method: Viability of TZM cells upon treatment with Trappin-2/Elafin and CVL was quantified using the […] 96° AQueous One Solution Cell Proliferation Assay (Promega) according to manufacturer's instructions. Briefly, reagent was added directly to cell cultures and incubated for 1 hour at 37° C. followed by reading the plate in a plate reader at OD 490 nm.

[4] = cells pre-incubated with 0.1 and 1 ng/ml 1 hour, washed
[5] = virus pre-incubated 1 hour with 0.01, 0.1, 1, 10 ng/ml, 48 hours

Substance	Trappin-2/Elafin secretion by UT epithelial cells (uterine epithelial cells)	fraction of patients upregulating Trappin-2/Elafin [1]	CCL20/MIP3α mRNA upregulation ([2]; Poly(I:C) 25 μg/mL, 24 hours, five out of five patients)	endometrium CCL20/MIP3α secretion ([2]; Poly(I:C) 24 hours, ELISA)	CCL20/MIP3α level secreted by endometrium cells ([2]; stimulated with Poly(I:C), constitutive 0.2-7 ng/mL) [ng/mL]	samples with CCL20/MIP3α mRNA upregulation ([3]; Poly(I:C) 24 hours)	Fallopian tube CCL20/MIP3α secretion ([3]; Poly(I:C) 24 hours, ELISA)	CCL20/MIP3α level secreted by Fallopian tube cells ([3]; stimulated with Poly(I:C), constitutive 5-12 ng/mL) [ng/mL]	post-infection inhibition, IIIB (HIV-1 X4/T-tropic IIIB; added 6 hours post-infection)	post-infection inhibition, IIIB (HIV-1 X4/T-tropic IIIB; added 24 hours post-infection)	infectivity of TZM cells by IIIB after pre-exposure of the cells (HIV-1 X4/T-tropic IIIB; [4])	inhibition of IIIB (HIV-1 X4/T-tropic IIIB; [5]) [%]	post-infection inhibition, BaL (HIV-1 R5/M-tropic BaL; added 6 and 24 hours post-infection, 1 ng/ml)	infectivity of TZM cells by BaL after pre-exposure of the cells (HIV-1 R5/M-tropic BaL; [4])	inhibition of BaL (HIV-1 R5/M-tropic BaL; [5]) [%]	toxic effect on the TZM cells (viability) (TZM cells)
Poly(I:C)	significantly increased	approximately ⅓ typically responded	greater than two-fold	significant increase	5 to 12	two out of four samples	significant increase	13 to 20	–	–	–	–	–	–	–	–
rTrappin-2/Elafin: recombinant human Trappin-2/Elafin (Peprotech), serine protease inhibitor (AQEPVKGPVSTKPGSCPIILIRCAMLNPPNRCLKDTDCPGIKKCCEGSCGMACFVPQ; UniProt P19957 61-117, looked up)	–	–	–	–	–	–	–	–	no significant post-infection inhibition	slight inhibition	no effect	~80	no significant post-infection inhibition	no effect	~60	not due to toxic effect
